From ChEMBL document CHEMBL4706683 (J Med Chem, 2021) come the findings set out here.

Data set [1] can be described thus: Cmax in Balb/c mouse at 5 mg/kg, ip administered as single dose measured upto 24 hrs by LC-MS/MS analysis. Particulars: in vivo. The class given is ADME, organism-based. More on the design: route intraperitoneal, dose 5 mg/kg, time <=24.
In data set [2] the test system is Plasmodium falciparum. In words: Antiplasmodial activity against artemisinin-resistant Plasmodium falciparum 6218 infected in human erythrocytes assessed as reduction in parasite growth incubated for 72 hrs by Giemsa staining based light microscopic method. As to conditions: Plasmodium falciparum, 6218, Erythrocyte. The class given is functional, organism-based.

Data set [3] can be described thus: Apparent volume of distribution during terminal phase in Balb/c mouse at 2 mg/kg, iv administered as single dose measured upto 24 hrs by LC-MS/MS analysis. It is filed as ADME, organism-based. Particulars: in vivo.
The next data set deals with T1, Histone deacetylase 8 (Homo sapiens, UniProt Q9BY41).
T1 sequence (Q9BY41 whole entry): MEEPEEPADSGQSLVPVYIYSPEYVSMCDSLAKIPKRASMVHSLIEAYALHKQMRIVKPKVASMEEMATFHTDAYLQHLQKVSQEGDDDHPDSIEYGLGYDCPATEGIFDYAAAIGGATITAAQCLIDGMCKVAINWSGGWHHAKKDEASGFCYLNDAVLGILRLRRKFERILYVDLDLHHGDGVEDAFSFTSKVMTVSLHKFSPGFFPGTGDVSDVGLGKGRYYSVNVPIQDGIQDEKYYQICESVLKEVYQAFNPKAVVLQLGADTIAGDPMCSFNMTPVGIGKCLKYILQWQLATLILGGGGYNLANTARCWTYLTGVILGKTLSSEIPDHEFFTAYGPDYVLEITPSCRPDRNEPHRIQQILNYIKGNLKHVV
Briefly: Inhibition of full length human C-terminal His-tagged HDAC8 expressed in baculovirus infected Sf9 cells using Ac-peptide as substrate preincubated for 15 mins followed by substrate addition and incubated for 120 mins followed by trypsin addition and further incubated for 240 mins.

The nature of data set [4]: Oral bioavailability in Balb/c mouse at 10 mg/kg administered as single dose measured upto 24 hrs by LC-MS/MS analysis. As to conditions: in vivo. It is filed as ADME, organism-based.
The nature of data set [5]: Toxicity in Balb/c mouse infected with blood stage Plasmodium yoelii assessed as animal death at 10 to 30 mg/kg, ip QD for 5 consecutive days and measured on day 6. It is filed as organism-based. As to conditions: in vivo, 120 h, dose 10-30 mg/kg, time 5 day.
For data set [6], the system named is Plasmodium falciparum. Briefly: Antiplasmodial activity against artemisinin-resistant Plasmodium falciparum 6218 assessed as reduction in parasite survival at 700 nM incubated for 6 hrs followed by compound washout thrice and further cultured in compound free medium for 66 hrs by RSA. It is filed as functional, organism-based.
Data set [7] is described as follows: AUC (0 to t) in Balb/c mouse at 10 mg/kg, po administered as single dose measured upto 24 hrs by LC-MS/MS analysis. The class given is ADME, organism-based. More on the design: route oral, dose 10 mg/kg, time <=24. Particulars: in vivo.
For data set [8], the system named is Plasmodium falciparum. Briefly: Inhibition of Plasmodium falciparum HDAC assessed as hyperacetylation of histone H3 at 20 times IC50 incubated for 4 hrs by Western blot analysis. In general terms: In western blotting, separated proteins are transferred to a membrane and probed.
Data set [9] in a line: Half life in mouse liver microsomes incubated upto 45 mins in presence of NADPH by LC-MS/MS analysis. It is filed as ADME, Microsome. (Liver microsomes are a subcellular fraction often used to study metabolism.)
Data set [10] is described as follows: Tmax in Balb/c mouse at 10 mg/kg, po administered as single dose measured upto 24 hrs by LC-MS/MS analysis. The class given is ADME, organism-based. Particulars: in vivo.
The target in data set [11] is Histone deacetylase 3/Nuclear receptor corepressor 2 (HDAC3/NCoR2) (Homo sapiens, UniProt O15379). In words: Inhibition of human C-terminal His-tagged HDAC3/N-terminal GST-tagged NCOR2 expressed in baculovirus infected Sf9 cells using Ac-peptide as substrate preincubated for 15 mins followed by substrate and trypsin addition and further incubated for 60 mins.
Sequence of Histone deacetylase 3/Nuclear receptor corepressor 2 (HDAC3/NCoR2) (O15379 whole entry): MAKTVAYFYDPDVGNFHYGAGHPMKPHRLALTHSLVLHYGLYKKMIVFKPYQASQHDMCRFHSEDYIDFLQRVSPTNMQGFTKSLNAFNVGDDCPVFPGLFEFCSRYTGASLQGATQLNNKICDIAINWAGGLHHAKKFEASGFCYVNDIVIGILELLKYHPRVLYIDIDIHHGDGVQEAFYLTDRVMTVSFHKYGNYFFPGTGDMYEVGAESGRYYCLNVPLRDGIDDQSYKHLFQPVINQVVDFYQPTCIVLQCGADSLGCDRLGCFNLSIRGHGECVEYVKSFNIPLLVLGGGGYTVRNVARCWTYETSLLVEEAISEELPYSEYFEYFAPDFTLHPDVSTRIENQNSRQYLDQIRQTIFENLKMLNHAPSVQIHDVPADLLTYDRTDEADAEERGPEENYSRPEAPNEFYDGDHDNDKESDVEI
Sequence of Histone deacetylase 3/Nuclear receptor corepressor 2 (HDAC3/NCoR2) (Q9Y618 whole entry, further chain): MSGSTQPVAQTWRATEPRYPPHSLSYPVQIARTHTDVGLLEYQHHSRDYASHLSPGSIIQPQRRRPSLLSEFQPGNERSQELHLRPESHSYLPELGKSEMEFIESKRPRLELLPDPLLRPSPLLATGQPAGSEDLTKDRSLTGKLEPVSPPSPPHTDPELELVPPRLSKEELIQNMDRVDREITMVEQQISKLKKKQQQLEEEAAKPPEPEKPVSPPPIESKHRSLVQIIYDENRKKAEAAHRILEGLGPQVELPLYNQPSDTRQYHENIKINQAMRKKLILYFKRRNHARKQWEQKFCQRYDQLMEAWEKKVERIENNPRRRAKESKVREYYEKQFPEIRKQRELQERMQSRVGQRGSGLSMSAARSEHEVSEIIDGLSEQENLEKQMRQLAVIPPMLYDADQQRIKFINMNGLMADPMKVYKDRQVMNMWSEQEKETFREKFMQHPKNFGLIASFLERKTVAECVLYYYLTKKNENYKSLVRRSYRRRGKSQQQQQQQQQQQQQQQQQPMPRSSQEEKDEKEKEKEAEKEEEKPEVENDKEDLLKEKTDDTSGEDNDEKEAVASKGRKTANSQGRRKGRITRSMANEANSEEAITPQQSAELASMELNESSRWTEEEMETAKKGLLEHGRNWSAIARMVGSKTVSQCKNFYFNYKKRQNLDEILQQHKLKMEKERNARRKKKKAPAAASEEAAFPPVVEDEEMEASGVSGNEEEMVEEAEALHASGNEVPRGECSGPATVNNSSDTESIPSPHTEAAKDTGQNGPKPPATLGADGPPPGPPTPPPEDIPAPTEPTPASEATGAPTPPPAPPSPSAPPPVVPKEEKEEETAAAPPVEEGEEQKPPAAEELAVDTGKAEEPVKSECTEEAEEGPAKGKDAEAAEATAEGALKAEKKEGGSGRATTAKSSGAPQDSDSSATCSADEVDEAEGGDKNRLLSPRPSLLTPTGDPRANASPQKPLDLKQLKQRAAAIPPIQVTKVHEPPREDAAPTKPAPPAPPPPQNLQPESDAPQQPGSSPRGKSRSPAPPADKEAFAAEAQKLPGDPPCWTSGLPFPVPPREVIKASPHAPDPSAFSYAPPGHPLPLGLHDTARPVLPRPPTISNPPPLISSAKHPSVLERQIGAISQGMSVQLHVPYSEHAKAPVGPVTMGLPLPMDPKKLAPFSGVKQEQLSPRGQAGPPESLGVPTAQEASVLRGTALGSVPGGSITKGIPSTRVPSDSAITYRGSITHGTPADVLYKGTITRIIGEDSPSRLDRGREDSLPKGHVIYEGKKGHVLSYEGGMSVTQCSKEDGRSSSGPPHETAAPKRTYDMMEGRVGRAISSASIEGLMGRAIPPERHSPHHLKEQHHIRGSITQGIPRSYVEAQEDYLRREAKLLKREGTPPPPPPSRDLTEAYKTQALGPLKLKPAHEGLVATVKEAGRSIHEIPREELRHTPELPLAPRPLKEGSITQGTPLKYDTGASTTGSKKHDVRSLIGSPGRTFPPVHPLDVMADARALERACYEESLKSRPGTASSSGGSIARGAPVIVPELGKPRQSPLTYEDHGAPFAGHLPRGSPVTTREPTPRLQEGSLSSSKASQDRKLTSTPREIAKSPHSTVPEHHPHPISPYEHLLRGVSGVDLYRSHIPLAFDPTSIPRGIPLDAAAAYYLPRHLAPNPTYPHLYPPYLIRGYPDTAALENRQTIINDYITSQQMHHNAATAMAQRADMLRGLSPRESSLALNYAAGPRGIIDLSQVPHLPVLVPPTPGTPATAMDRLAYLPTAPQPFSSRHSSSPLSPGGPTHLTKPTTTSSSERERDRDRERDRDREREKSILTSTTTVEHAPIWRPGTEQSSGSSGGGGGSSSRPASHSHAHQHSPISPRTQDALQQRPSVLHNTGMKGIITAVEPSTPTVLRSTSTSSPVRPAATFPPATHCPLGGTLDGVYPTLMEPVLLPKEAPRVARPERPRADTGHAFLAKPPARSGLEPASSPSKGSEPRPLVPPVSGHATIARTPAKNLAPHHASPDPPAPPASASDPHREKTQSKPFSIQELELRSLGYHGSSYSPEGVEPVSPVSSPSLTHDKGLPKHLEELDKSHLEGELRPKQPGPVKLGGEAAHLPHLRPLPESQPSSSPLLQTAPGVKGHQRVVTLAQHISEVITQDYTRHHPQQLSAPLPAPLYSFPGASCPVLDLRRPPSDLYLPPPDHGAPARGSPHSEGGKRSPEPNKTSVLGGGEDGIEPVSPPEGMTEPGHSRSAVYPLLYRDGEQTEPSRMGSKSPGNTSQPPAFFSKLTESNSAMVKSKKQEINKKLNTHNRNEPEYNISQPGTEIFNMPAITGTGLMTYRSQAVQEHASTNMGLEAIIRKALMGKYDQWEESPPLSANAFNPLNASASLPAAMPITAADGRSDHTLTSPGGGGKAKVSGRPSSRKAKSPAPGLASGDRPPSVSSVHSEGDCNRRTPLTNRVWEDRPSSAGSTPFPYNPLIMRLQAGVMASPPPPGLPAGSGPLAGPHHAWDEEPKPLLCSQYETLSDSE
The nature of data set [12]: AUC (0 to t) in Balb/c mouse at 2 mg/kg, iv administered as single dose measured upto 24 hrs by LC-MS/MS analysis. The class given is ADME, organism-based. More on the design: route intravenous, dose 2 mg/kg, time <=24. Particulars: in vivo.
Data set [13] deals with Plasmodium falciparum. Briefly: Antiplasmodial activity against synchronized ring stage Plasmodium falciparum 3D7 infected in human erythrocytes assessed as new ring stage formation at 10 times IC50 incubated for 12 hrs followed by compound washout and measured at 50 hrs by […] analysis. It is filed as functional, organism-based. Particulars: Erythrocyte.

Another data set concerns the target Histone deacetylase 1 (Homo sapiens, UniProt Q13547). It is filed as ADME, cell-based, Sf9.
The subject of a further data set is HepG2. In words: Cytotoxicity against human HepG2 cells assessed as reduction in cell viability incubated for 72 hrs by cell titer glo assay. The class given is cell-based. Particulars: HepG2, 72 h. On the technique in general: In ATP-based viability assays light output follows the ATP content of the culture.
Data set [14] concerns Plasmodium falciparum. In words: Antiplasmodial activity against Plasmodium falciparum C2A infected in human erythrocytes assessed as reduction in parasite growth incubated for 72 hrs by Giemsa staining based light microscopic method. It is filed as functional, organism-based. As to conditions: Erythrocyte.

pIC50: −log10 of the molar value. Active and inactive are the calls of the source. The calls are words filed in the database; no cut-off is given here.

Sequence of Histone deacetylase 1 (Q13547 whole entry): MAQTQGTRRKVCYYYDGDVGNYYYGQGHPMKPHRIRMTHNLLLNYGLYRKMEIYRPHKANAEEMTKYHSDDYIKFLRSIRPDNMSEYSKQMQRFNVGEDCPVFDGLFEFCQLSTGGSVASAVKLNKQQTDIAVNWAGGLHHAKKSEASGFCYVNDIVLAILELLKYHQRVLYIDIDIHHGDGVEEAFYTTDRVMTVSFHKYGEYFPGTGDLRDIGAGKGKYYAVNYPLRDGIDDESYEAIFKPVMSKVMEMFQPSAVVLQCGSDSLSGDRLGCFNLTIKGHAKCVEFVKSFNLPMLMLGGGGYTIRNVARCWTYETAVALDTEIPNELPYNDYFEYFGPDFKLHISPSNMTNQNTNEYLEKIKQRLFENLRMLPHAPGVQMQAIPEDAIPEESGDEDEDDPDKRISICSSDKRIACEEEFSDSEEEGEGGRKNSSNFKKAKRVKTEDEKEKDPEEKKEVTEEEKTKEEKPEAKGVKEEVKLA

`Cl.O=C(NO)c1cnc(N2CCC3(CCN(Cc4c[nH]c5ccccc45)C3)CC2)nc1`: the concentration in data set [1] peaked (Cmax) at 108 ng/mL. The pIC50 – broadly, the IC50 on a negative log10 scale, so that one unit is a factor of ten – was 8.52 with Plasmodium falciparum [2]; 7.80 against Histone deacetylase 8; 8.52 in [11]; 9.24 against Histone deacetylase 1; 6.58 with HepG2; 8.35 with Plasmodium falciparum [14]. In addition, in data set [3], the Vz/F came out at 10.3 L/kg. Further, the bioavailability (as a rule, dose-corrected exposure relative to a reference, in per cent) in data set [4] worked out at 0.5%. Moreover, in data set [5], the Activity entry is given as “Non-Toxic”. In addition, the result with Plasmodium falciparum [6] and in the data set with Plasmodium falciparum [13] was Active. Also, the AUC(0-t) – broadly, the area under the concentration-time curve up to a stated or last time point – at 24 h worked out at 2.94 ng·h/mL in data set [7] and 117 ng·h/mL in data set [12]. Further, in the data set with Plasmodium falciparum [8], the inhibition entry is “Active”. In addition, the half-life – broadly, the time in which the quantity being followed falls by half – in data set [9] came to 45 min. Besides, the Tmax (usually the time from dosing to the highest level) in [10] turned out to be 15 min.
